According to patent US20210260078A1, “LOW DOSAGE INTRANASAL AMINOSTEROL DOSAGE FORMS AND METHODS OF USING THE SAME” (Enterin, Inc., priority 2018, published 2021):
Entries after “also recorded” stand apart in the source; their conditions may differ. Where two headings read alike, the source gives them in different places. One block for each compound: values may come before it.

Tests used:
[1] = Plasma pharmacokinetics after intranasal (IN) administration; format: in vivo, Sprague Dawley® (SD) rats
Description: (§1) The purpose of this example was to evaluate the in vivo distribution and function of aminosterols, such as Aminosterol 1436 and squalamine, following intranasal administration. This experiment relates to the amount of drug needed to obtain a therapeutic result, based on an IN route of administration. The results described below detail that aminosterols such as Aminosterol 1436 act at the level of the hypothalamus following in vivo administration, regardless of the route of administration.
(§2) Pharmacokinetic information for these tests can be found in the tables below.

[2] = CSF concentration after intranasal (IN) administration; format: in vivo, Sprague Dawley® (SD) rats
Description: as §1, §2

[3] = Weight change after IP or IN administration (FIG. 8); format: in vivo, mice
Experimental: The purpose of this example was to evaluate and compare the impact on weight following administration of an aminosterol such as Aminosterol 1436 to mice via IP or IN.
Mice were administered: (i) intraperitoneally 1 mg/kg or 10 mg/kg of Aminosterol 1436, (ii) intranasally 0.4 mg/kg of Aminosterol 1436, or (iii) a saline control administered IN. Weight of the mice was then measured for 10 days post-administration.

[4] = In vivo brain distribution of radiolabeled Aminosterol 1436 after ICV and IV administration; set-up: species or system rat; details: 3H-labeled
Description: The purpose of this example was to evaluate the in vivo distribution of Aminosterol 1436 following intracerebroventricular (ICV) and intravenous (IV) administration to rats. ICV injection is an invasive injection technique of substances directly into the cerebrospinal fluid in cerebral ventricles to bypass the blood brain barrier. The results described below detail how aminosterols such as Aminosterol 1436 localize in the brain following in vivo administration, regardless of the route of administration.
Radiolabeled Aminosterol 1436 was injected into rats by two different forms of administration: ICV and IV administration.

[5] = Food intake and body weight after IP or ICV administration (FIG. 2B, 2C); format: in vivo; details: 10 and 40 μg ICV, 5 mg/kg IP, 10 day period
Description: The purpose of this example was to evaluate the in vivo distribution of the aminosterol Aminosterol 1436 following intraperitoneal administration (IP) and ICV administration, and to determine the impact the drug has on food intake and body weight when administered IP and ICV.
This experiment is relevant as the areas of the brain where the aminosterol Aminosterol 1436 localized upon administration are known to control feeding behavior and appetite.

[6] = PK profile, IV bolus compared with IN administration (FIG. 9); format: in vivo; details: rat, plasma
Description: Thus, the amount of aminosterol in the bloodstream is too low to account for the observed pharmacological effect. This means that when administered IN, an aminosterol is having a pharmacological effect via a mechanism other than via plasma concentration of the drug.

[7] = Sprague-Dawley, rat, inhaled or intranasal, plasma, 0.5 mg/kg IN dose, mean
[8] = plasma, 0.5 mg/kg IN dose, mean (Table 4)

Blood levels after intranasal administration relative to peripherally injected ([1]; IN versus peripherally injected): 10 times
AUC(0-inf) [1, 7]: 17.9 µg·h/mL
AUC(0-t) [1, 7]: 9.37 µg·h/mL
Cmax [1, 7]: 1.68 µg/mL
half-life [1, 7]: 7.59 h
MRT inf ([1]; Sprague-Dawley, rat, inhaled or intranasal, plasma, 0.5 mg/kg IN dose, mean, read-out: MRTInf_obs): 11.1 h
Tmax ([1]; Sprague-Dawley, rat, inhaled or intranasal, plasma, 0.5 mg/kg IN dose, mean, read-out: Tmax): 4 h
Site of localization in brain ([4]; IV administration): localized in the hypothalamus
bioavailability ([6]; other: intranasal, IN 0.5 mg/kg compared with IV bolus 2 mg/kg): ~20%
AUC ([6]; IV bolus 2 mg/kg, read-out: PK profile value after IV bolus injection (AUC)): 190 µg·h/mL
SMILES: CC(C)[C@@H](CC[C@@H](C)[C@H]1CC[C@H]2[C@@H]3[C@H](O)C[C@H]4C[C@@H](NCCCNCCCCNCCCN)CC[C@]4(C)[C@H]3CC[C@]12C)OS(=O)(=O)O [Aminosterol 1436]
Drug found in CSF ([2]; Sprague-Dawley, rat, in vivo, 0.5 mg/kg): No squalamine lactate or Aminosterol 1436 was found in CSF
Decrease in weight, comparison in words ([3]; 0.4 mg/kg IN, 10 days post-administration): comparable to 10 mg/kg of intraperitoneally administered Aminosterol 1436
Decrease in weight ([3]; 0.4 mg/kg intranasal (IN)): about 5%
Effect on weight (anti-feeding effect) ([3]; 1 mg/kg IP, compared with IN saline control): compared similarly to the intranasally administered saline control; also recorded: no anti-feeding effect
Decrease in weight ([3]; 10 mg/kg IP): about 19%
Site of localization in brain ([4]; ICV administration): localized to the same regions of the brain
Effect on food intake [5]: significant impact on food intake

AUCInf [1, 8]: 7.863 µg·h/mL
AUClast [1, 8]: 5.296 µg·h/mL
MRTInf_obs [1, 8]: 7.12 H
T1/2 [1, 8]: 4.55 H
Tmax [1, 8]: 1.00 H
SMILES: CC(C)[C@@H](CC[C@@H](C)[C@H]1CC[C@H]2[C@@H]3[C@H](O)C[C@H]4C[C@@H](NCCCNCCCCN)CC[C@]4(C)[C@H]3CC[C@]12C)OS(=O)(=O)O.C[C@H](O)C(=O)O.O [Squalamine Lactate]
Drug found in CSF ([2]; CSF, 0.5 mg/kg IN): No squalamine lactate or Aminosterol 1436 was found in CSF
